According to patent US8680126B2, “Fluorinated thiazoles for use in treating cancer” (Universitat de Barcelona, priority 2010, dated 2014):

How the values were obtained:
[1] = test system: Jurkat cell line (T lymphocytes from acute T cell leukemia, mutated TP53); test: Screening assay in Jurkat cells by measuring cell viability (flow cytometry), single dose; type: cell-based, human; set-up: key: “+” means low activity; “++” means good activity; “+++” means very good activity; “−” means no activity; details: single dose of 40 μM, 24 hour-incubation
Experimental: (§1) The human cell lines Jurkat (T lymphocytes from acute T cell leukemia), Ramos (B lymphocytes from Burkitt's lymphoma), TK6 (human lymphoblast cell line) HeLa (epithelial cervical carcinoma cell line), MDA-MB 231 (epithelial breast adenocarcinoma cell line), T98-G (glioblastoma cell line) and Hep3B (hepatocellular carcinoma cell line) were obtained from the European Collection of Cell Cultures.
(§2) Jurkat, Ramos, TK6 and CLL cells were grown in RPMI-1640 medium, and HeLa cells in DMEM medium, both containing 10% heat-inactivated fetal calf serum, 1% glutamine, and 1% penicillin-streptomycin. MDA-MB 231 cells were grown in DMEM/F-12 medium containing additionally 1% pyruvate. Hep3B cells were maintained in MEM medium supplemented with 10% fetal bovine serum. All were maintained at 37° C. in humidified atmosphere containing 5% carbon dioxide.
(§3) 0.25-0.3×10^6 cells were washed in phosphate-buffered saline (PBS) and resuspended in 100 μl of annexin binding buffer and incubated with 1 μl of annexin V-Fluorescein-5-isothiocyanate (FITC) or annexin V-Allophycocyanin (APC). After 20 min of incubation in the dark at room temperature, 100 μl of annexin binding buffer with 5 μl of propidium iodide (PI) (20 μg/ml) was added just before flow cytometric analysis. Data were analyzed using the appropriate software. Cell viability was measured by analysis of phosphatidylserine exposure and PI uptake and it is expressed as the percentage of annexin-V and PI double-negative cells.
A screening of the effect of compounds Ia-If was performed in Jurkat cell line (T lymphocytes form acute T cell leukemia) at a single dose of 40 μM for 24 hour-incubation.
Jurkat cells were selected among other leukemic tumor cell lines because they have the protein TP53 mutated.
Every compound mentioned above was dissolved in the minimum amount of DMSO necessary to be dissolved. Cell viability was measured by flow cytometry analysis. […] Thus, all the observed effects on cell viability are due to the compounds' activity.
The results are summarized in Table 2: “+” means low activity; “++” means good activity and “+++” means very good activity; “−” means no activity.

[2] = test system: HeLa cells (epithelial cervical carcinoma cell line with inactivated p53); test: Dose-response analysis of apoptosis by flow cytometry in HeLa cells; type: cell-based; details: Homo sapiens, 24 hours, flow cytometry (annexin-V negative cells in respect to untreated cells)
Experimental: as §1, §2, §3
(§4) Dose-response analysis was performed using Jurkat mutated-TP53 cancer cells and inactivated p53 cancer cell line HeLa.
(§5) Cell viability was measured by flow cytometry and it is expressed as the percentage of nonapoptotic cells (annexin-V negative) in respect to untreated cells at 24 hours. Therefore, values under 100% are indicative of apoptosis or loss of cell viability.
HeLa cells (epithelial cervical carcinoma cell line with inactivated p53) were incubated with a range of doses from 2 to 40 μM of each compound for 24 hours.
(§6) The IC50 at 24 hours was calculated for each compound using flow cytometry analysis. The results are expressed in Table 3 as the percentage of nonapoptotic cells (annexin-V negative) in respect to untreated cells at 24 hours.
HeLa cells (epithelial cervical carcinoma cell line with inactivated p53) were incubated with a range of doses from 5 to 40 μM of each compound for 24 hours.

[3] = test system: Jurkat cells (T lymphocytes from acute T cell leukemia with mutated TP53); test: Dose-response analysis of apoptosis by flow cytometry in Jurkat cells; type: cell-based; details: Homo sapiens, 24 hours, flow cytometry (annexin-V negative cells in respect to untreated cells)
Experimental: as §1, §2, §3, §4, §5
Jurkat cells (which are T lymphocytes from acute T cell leukemia with mutated TP53) were incubated with a range of doses from 1 to 40 μM of each compound for 24 hours.
as §6
Jurkat cells (which are T lymphocytes from acute T cell leukemia with mutated TP53) were incubated with a range of doses from 5 to 40 μM of each compound for 24 hours.

[4] = test system: B-CLL cells from patients with mutated TP53; test: Dose-response analysis of apoptosis by flow cytometry in B-CLL cells, mutated TP53; type: cell-based, human; details: B-CLL cells mutated TP53, doses from 1 to 20 μM, 24 hours
Experimental: as §2
Peripheral blood lymphocytes from CLL patients were obtained from the Haematology Unit at the IDIBELL-Hospital de Bellvitge, L'Hospitalet de Llobregat, Barcelona, Spain. CLL was diagnosed according to standard clinical and laboratory criteria. Written informed consent was obtained from all patients, in accordance with the Hospital de Bellvitge's Ethical Committee. […] The purity of CLL samples was evaluated with allophycocyanin (APC)-conjugated anti-CD3 and phycoerythrin (PE)-conjugated anti-CD19 (Becton Dickinson, Frankiln Lakes, N.J., USA). Data were analysed by flow cytometry and the analysis was performed with the appropriate software.
(§7) 0.25-0.3×10^6 cells were washed in phosphate-buffered saline (PBS) and resuspended in 100 μl of annexin binding buffer and incubated with 1 μl of annexin V-Fluorescein-5-isothiocyanate (FITC) or annexin V-Allophycocyanin (APC). […] Data were analyzed using the appropriate software. […]

[5] = test system: Ramos cells (B lymphocytes from Burkitt's lymphoma with mutated TP53); test: Dose-response analysis of apoptosis by flow cytometry in Ramos cells; type: cell-based, human; details: 24 hours; for IC50: Homo sapiens, flow cytometry; for induction of apoptosis (dose-response): doses from 2 to 40 μM
Experimental: as §1, §2, §3
Ramos cells (B lymphocytes from Burkitt's lymphoma with mutated TP53) were incubated with a range of doses from 2 to 40 μM of compounds Ia and Id for 24 hours.
(§8) The IC50 of compounds Ia and Id was calculated at 24 hours by flow cytometry analysis, except for Hep3B where crystal violet assay was used. The results are expressed in Table 4 as the percentage of viable cells in respect to untreated cells at 24 hours.

[6] = test system: MDA-MB-231 cells (epithelial breast adenocarcinoma cell line with mutated TP53); test: Dose-response analysis of apoptosis by flow cytometry in MDA-MB-231 cells; type: cell-based, human; details: 24 hours; for IC50: Homo sapiens, MDA-MB-231, flow cytometry; for induction of apoptosis (dose-response): MDA-MB-231, doses from 2 to 60 μM
Experimental: as §1, §2, §3
MDA-MB-231 cells (epithelial breast adenocarcinoma cell line with mutated TP53) were incubated with a range of doses from 2 to 60 μM of compounds Ia and Id for 24 hours.
as §8

[7] = test system: T98-G cells (glioblastoma cell line with mutated TP53); test: Dose-response analysis of apoptosis by flow cytometry in T98-G cells; type: cell-based, human; details: 24 hours; for IC50: Homo sapiens, T98G, flow cytometry; for induction of apoptosis (dose-response): T98-G, doses from 2 to 60 μM
Experimental: as §1, §3
T98-G cells (glioblastoma cell line with mutated TP53) were incubated with a range of doses from 2 to 60 μM of compounds Ia and Id for 24 hours.
as §8

[8] = test system: Hep3B cells (hepatocellular carcinoma cell line with deleted TP53); test: Cell viability by crystal violet assay in Hep3B cells; type: cell-based, human; details: 24 hours; for IC50: Homo sapiens, crystal violet assay; for loss of cell viability (dose-response): doses from 2 to 40 μM, crystal violet
Experimental: as §1, §2
This method allows quantifying the amount of cells that survive after a toxic process, and it consists on cell staining with a colorant, crystal violet. This method is only useful when working with adherent cells that detached after undergoing a toxic process.
After the cells were incubated, in 12 or 24-well plates, with the different stimuli or inhibitors, the cell media was removed, and cells were washed twice with PBS. Then, a solution of Crystal violet at 0.2% (w/v) in 2% ethanol was added during 30 minutes. Following this, the staining solution was removed, and the wells were washed several times with PBS or distilled water until the excess staining that was not incorporated into the cells was eliminated. The plate was air-dried, and the stained cells were lysed in 10% SDS. By spectrophotometric analysis, the absorbance was measured at 595 nm.
The results were then calculated as the percentage of viable cells relative to control cells (cells incubated in the absence of treatment) at the indicated times.
Hep3B cells (hepatocellular carcinoma cell line with deleted TP53) were incubated with a range of doses from 2 to 40 μM of compounds Ia and Id for 24 hours.
as §8

[9] = test system: B-CLL cells; test: IC50 by flow cytometry in primary B-CLL cells; type: cell-based; details: Homo sapiens, 24 hours
Experimental: as §2
Peripheral blood lymphocytes from CLL patients were obtained from the Haematology Unit at the IDIBELL-Hospital de Bellvitge, L'Hospitalet de Llobregat, Barcelona, Spain. CLL was diagnosed according to standard clinical and laboratory criteria. […] The purity of CLL samples was evaluated with allophycocyanin (APC)-conjugated anti-CD3 and phycoerythrin (PE)-conjugated anti-CD19 (Becton Dickinson, Frankiln Lakes, N.J., USA). Data were analysed by flow cytometry and the analysis was performed with the appropriate software.
as §7
The IC50 of compounds Ia and Id was calculated at 24 hours by flow cytometry analysis, except for Hep3B where crystal violet assay was used. […]

[10] = test system: TK6 cells (human lymphoblast cell line with wild-type TP53); test: Dose-response analysis of apoptosis by flow cytometry in TK6 cells; type: cell-based; details: 24 hours; for IC50: Homo sapiens, TK6, flow cytometry; for induction of apoptosis (dose-response): TK6, doses from 2 to 40 μM
Experimental: as §1, §2, §3
TK6 cells (human lymphoblast cell line with wild-type TP53) were incubated with a range of doses from 2 to 40 μM of compounds Ia and Id for 24 hours.
as §8

[11] = test system: B-CLL cells from patients with wild-type TP53; test: Dose-response analysis of apoptosis by flow cytometry in B-CLL cells, wild-type TP53; type: cell-based, human; details: 24 hours; for induction of apoptosis (dose-response): B-CLL cells wild-type TP53, doses from 1 to 20 μM
Experimental: as §2
Peripheral blood lymphocytes from CLL patients were obtained from the Haematology Unit at the IDIBELL-Hospital de Bellvitge, L'Hospitalet de Llobregat, Barcelona, Spain. CLL was diagnosed according to standard clinical and laboratory criteria. Written informed consent was obtained from all patients, in accordance with the Hospital de Bellvitge's Ethical Committee. Mononuclear cells from heparinized peripheral blood samples were isolated by centrifugation on a Ficoll-Hypaque (Seromed, Berlin, Germany) gradient. The purity of CLL samples was evaluated with allophycocyanin (APC)-conjugated anti-CD3 and phycoerythrin (PE)-conjugated anti-CD19 (Becton Dickinson, Frankiln Lakes, N.J., USA). Data were analysed by flow cytometry and the analysis was performed with the appropriate software.
as §3
B-CLL cells from patients with wild-type TP53 were incubated with a range of doses from 1 to 20 μM of compounds Ia and Id for 24 hours. […]

[12] = test system: T cells (CLL cells from patients with wild-type TP53); test: Dose-response analysis by flow cytometry in T cells of CLL patients, wild-type TP53; type: cell-based, human; details: doses from 5 to 40 μM, 24 hours
Experimental: Viability was measured by flow cytometry and it is expressed as the percentage of nonapoptotic cells (annexin-V FITC negative). A representative patient is shown.
as §2
Peripheral blood lymphocytes from CLL patients were obtained from the Haematology Unit at the IDIBELL-Hospital de Bellvitge, L'Hospitalet de Llobregat, Barcelona, Spain. […] The purity of CLL samples was evaluated with allophycocyanin (APC)-conjugated anti-CD3 and phycoerythrin (PE)-conjugated anti-CD19 (Becton Dickinson, Frankiln Lakes, N.J., USA). Data were analysed by flow cytometry and the analysis was performed with the appropriate software.
as §7

| SMILES | Biological activity [1] | IC50 [2] | IC50 [3] | induction of apoptosis (dose-response) [4] | IC50 [5] | induction of apoptosis (dose-response) [5] | IC50 [6] | induction of apoptosis (dose-response) [6] | IC50 [7] | induction of apoptosis (dose-response) [7] | IC50 [8] | loss of cell viability (dose-response) [8] | IC50 [9] | IC50 [10] | induction of apoptosis (dose-response) [10] | induction of apoptosis (dose-response) [11] | sensitivity of T cells compared with B cells [12] | induction of apoptosis (dose-response) in B cells ([11]; CLL cells wild-type TP53, B cells, doses from 5 to 40 μM) |
| --- | --- | --- | --- | --- | --- | --- | --- | --- | --- | --- | --- | --- | --- | --- | --- | --- | --- | --- |
| Clc1ccc(-c2cnc(-c3ccc(Cl)cc3)s2)cc1 [comparative Ad, 2,5-bis(4-chlorophenyl)thiazole, reference compound] | − |  |  |  |  |  |  |  |  |  |  |  |  |  |  |  |  |  |
| CCOC(=O)c1ccc(C2=NC(F)(F)C(F)(c3ccc(C)cc3)S2)cc1 (centres unmarked) [If, ethyl 4-(4,4,5-trifluoro-5-(p-tolyl)-4,5-dihydrothiazol-2-yl)benzoate] | ++ | 17 µM | 8 µM |  |  |  |  |  |  |  |  |  |  |  |  |  |  |  |
| FC1(F)N=C(c2ncc(-c3ccccc3)s2)SC1(F)c1ccccc1 (centres unmarked) [Ib, 5-phenyl-2-(4,4,5-trifluoro-5-phenyl-4,5-dihydrothiazol-2-yl)thiazole] | +++ | 8 µM | 3 µM |  |  |  |  |  |  |  |  |  |  |  |  |  |  |  |
| FC1(F)N=C(c2ccc(Cl)cc2)SC1(F)c1ccc(Cl)cc1 (centres unmarked) [Id, 4,4,5-trifluoro-2,5-bis(4-chlorophenyl)-4,5-dihydrothiazole] | +++ | 1.75 µM | 3.5 µM | induced apoptosis in a dose-dependent manner | 3.5 µM | induced apoptosis in a dose-dependent manner | 4 µM | induced apoptosis in a dose-dependent manner | 7.5 µM | induced apoptosis in a dose-dependent manner | 5 µM | induced a loss on cell viability in a dose-dependent manner | 5 µM | 2.5 µM | induced apoptosis in a dose-dependent manner | induced apoptosis in a dose-dependent manner |  |  |
| Fc1nc(C2=NC(F)(F)C(F)(c3ccccc3)S2)sc1-c1ccccc1 (centres unmarked) [Ia, 4-fluoro-5-phenyl-2-(4,4,5-trifluoro-5-phenyl-4,5-dihydrothiazol-2-yl)thiazole] | +++ | 20 µM | 4 µM | induced apoptosis in a dose-dependent manner | 4.5 µM | induced apoptosis in a dose-dependent manner | 16 µM | induced apoptosis in a dose-dependent manner | 50 µM | induced apoptosis in a dose-dependent manner | 14 µM | induced a loss on cell viability in a dose-dependent manner | 4 µM | 8 µM | induced apoptosis in a dose-dependent manner | induced apoptosis in a dose-dependent manner |  |  |
| FC1(F)N=C(c2ccccc2)SC1(F)c1ccccc1 (centres unmarked) [Ic, 4,4,5-trifluoro-2,5-diphenyl-4,5-dihydrothiazole] | ++ | 10 µM | 8 µM |  |  |  |  |  |  |  |  |  |  |  |  |  | less sensitive | induced apoptosis in a dose-dependent manner |
| FC1(F)N=C(c2ccc(-c3ccccc3)cc2)SC1(F)c1ccccc1 (centres unmarked) [Ie, 4,4,5-trifluoro-2-(biphenyl-4-yl)-5-phenyl-4,5-dihydrothiazole] | + | 3.5 µM | 20 µM |  |  |  |  |  |  |  |  |  |  |  |  |  |  |  |
